Laboratory results from patent publication US20090041823A1, “Agent-releasing Vascular Prosthesis” (priority 2003, published 2009).

Test system: intimal hyperplasia
Test: Patch plasty implantation at the iliac bifurcation, animal model
Type: in vivo, mini-pigs of the Gottingen type
Procedure: In a last step the prostheses were implanted in a preliminary animal trial in order to show the impact on intimal hyperplasia. Six mini-pigs of the Gottingen type were used as test animals. The Aa iliacae was prepared by a transperitonial access under general i.v. anaesthesia (Thiopental®) and each a multifunctional and a standard prosthesis were introduced into every animal. All animals obtained an antibiotic prophylaxis (Spizef®) and were anticoagulized with heparin.
As medicaments each of paclitaxel, sirolimus and IS was used twice. We have applied patch plasties as the border line between prosthesis and artery is bigger compared to end-to-end anastomoses and we could thus assess intimal hyperplasia in cross-section very well. The animals were again subjected to surgery after six weeks and the iliac bifurcation was explanted. Samples in longitudinal direction were derived from the patch plastics in the proximal and in the distal region, respectively, and samples in transversal direction were derived from the medium region. These samples were fixed in formaldehyde. The further processing comprised dehydration in an increasing alcohol series until embedding into paraffin. The preparations were cut and stained in HE and Tri-PAS. Apart from the extent of IH, also integration and inflammatory reactions were assessed.

integration of the prosthesis (explanted after 6 weeks): well integrated from outside
Compound: CC(=O)O[C@H]1C(=O)[C@@]2(C)[C@H]([C@H](OC(=O)c3ccccc3)[C@]3(O)C[C@H](OC(=O)[C@H](O)[C@@H](NC(=O)c4ccccc4)c4ccccc4)C(C)=C1C3(C)C)[C@]1(OC(C)=O)CO[C@@H]1C[C@@H]2O [paclitaxel]
endothelialization (patch plasty, explanted after six weeks): complete suppression of endothelialization
